Patent US9938265B2, “1,3,4-thiadiazole compounds and their use in treating cancer” (AstraZeneca AB, priority 2015, dated 2018)
Where two headings read alike, the source gives them in different places.

Tests used:
GLS1 = GLS1 (Homo sapiens (Human), UniProt O94925); test: GLS Enzyme Potency Assay (Glutamate Oxidase/AmplexRed coupled assay); format: biochemical
Description: (§1) The following assays were used to measure the effects of the compounds described herein: a) GLS Enzyme Potency Assay; b) GLS Cell Potency Assay; c) GLS Cell Proliferation Assay. During the description of the assays, generally: • i. The following abbreviations have been used: CO2=Carbon dioxide; DMEM=Dulbecco's Modified Eagle Medium; DMSO=Dimethyl sulphoxide; EDTA=Ethylenediaminetetraacetic acid; EGTA=Ethylene glycol tetraacetic acid; FCS=Foetal calf serum; h=Hour(s); NBS=Non-binding surface; SDS=Sodium dodecyl sulphate; TRIS=Tris(Hydroxymethyl)aminomethane. • ii. IC50 values were calculated using a smart fitting model in Genedata.
Assay a): GLS Enzyme Potency Assay
A Glutamate Oxidase/AmplexRed coupled assay was used to measure the ability of compounds to bind to and inhibit the activity of GLS1 in vitro. […] GLS1 was diluted to 2× working concentration and incubated at room temperature to allow the tetrameric/dimeric forms to reach steady state. Assay measurements were performed in buffer comprising 50 mM TRIS pH 7.8, 100 mM NaPO4, pH 7.8, 0.001% v/v Tween20. Purified recombinant GLS1 protein was diluted in assay buffer to 12 nM and pre-incubated at room temperature for 30 minutes. […] DMSO concentration was maintained at 2% by back filling with DMSO solution. 3 μL of diluted GLS1 protein (12 nM) was then dispensed into each well using a BioRaptr automated dispenser (Beckman-Coulter) and incubated for 15 minutes at room temperature. 3 μL of 100 mM glutamine diluted in assay buffer was then added and the reaction incubated at room temperature for 60 minutes. […] An artefact version of the assay where the 6His tagged GLS protein and glutamine were replaced with assay buffer was also used to rule out non specific effects on the assay components.

cellular GLS activity = cellular GLS activity (Homo sapiens (Human), UniProt O94925); test: GLS Cell Potency Assay (PC3 coupled assay measuring cellular glutamate depletion); format: cell-based; conditions: PC3 cells, 6 h incubation, glutamate depletion; read-out: Assay b) GLS cell MOA Mean IC50
cellular GLS activity, sequence (O94925 73-669): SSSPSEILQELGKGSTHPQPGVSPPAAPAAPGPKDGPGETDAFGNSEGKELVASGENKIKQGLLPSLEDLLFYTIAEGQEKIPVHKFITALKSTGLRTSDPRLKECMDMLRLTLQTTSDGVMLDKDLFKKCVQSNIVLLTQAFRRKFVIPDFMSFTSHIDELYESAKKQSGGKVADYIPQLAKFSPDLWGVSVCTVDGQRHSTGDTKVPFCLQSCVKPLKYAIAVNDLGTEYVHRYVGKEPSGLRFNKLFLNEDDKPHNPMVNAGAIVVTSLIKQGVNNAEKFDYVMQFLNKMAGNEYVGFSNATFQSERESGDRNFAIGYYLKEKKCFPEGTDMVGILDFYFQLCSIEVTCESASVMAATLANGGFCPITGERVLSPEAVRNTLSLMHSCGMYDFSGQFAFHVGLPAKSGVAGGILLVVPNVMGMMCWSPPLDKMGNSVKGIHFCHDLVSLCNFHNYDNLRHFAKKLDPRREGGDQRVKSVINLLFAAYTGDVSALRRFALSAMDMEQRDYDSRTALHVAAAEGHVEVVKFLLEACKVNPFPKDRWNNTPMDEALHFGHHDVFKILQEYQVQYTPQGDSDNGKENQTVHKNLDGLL
Description: as §1
Assay b): GLS Cell Potency Assay
Compounds were assessed for their potential to inhibit cellular GLS activity by use of a PC3 coupled assay measuring cellular glutamate depletion. […] DMSO concentration was maintained at 0.3% by back filling with DMSO solution. PC3 cells were grown in phenol free DMEM, 10% dialyzed FCS, 2 mM glutamine and following dispersal by trypsinisation were plated at 5.6×10^3 cells per well in 40 μl of growth medium directly into the 384 well assay plates containing dispensed compound. After incubation for 6 h at 37° C., 5% CO2 growth media was aspirated and cells lysed in 15 μl of buffer containing 10 mM TRIS pH7.4, 100 mM NaCl, 1 mM EDTA, 1 mM EGTA, 1 mM NaF, 20 mM Na4P2O7, 2 mM Na3VO4, 1% Triton X-100, 10% glycerol, 0.1% SDS and 0.5% deoxycholate.

NCI-H1703 cells = test: GLS Cell Proliferation Assay (NCI-H1703 cell proliferation); format: cell-based; conditions: NCI-H1703 cells, 5 days; read-out: Assay c) Prolif Mean IC50
Description: as §1
Assay c): GLS Cell Proliferation Assay
The ability of compounds to inhibit cell growth was measured using a 384 well plate NCI-H1703 cell proliferation assay. NCI-H1703 cells were grown in phenol red free RPMI1640, 10% FCS and 2 mM glutamine and seeded at a density of 750 cells per well in 40 μl of growth medium into clear-bottom 384 well assay plates (Corning product code 3712) and incubated for 24 h at 37° C., 5% CO2. Test compounds were prepared by dilution in 100% DMSO to give the correct dose range for 12 point concentration response and an appropriate volume (5-120 nl) dispensed directly into the assay plates containing plated cells. DMSO concentration was maintained at 0.3% by back filling with DMSO solution. Plates were incubated for 5 days at 37° C., 5% CO2, Sytox Green and Saponin added to final concentration of 2 μM and 0.25% respectively and incubated for 6 h prior to analysis. Plates were read on an Acumen eX3 (TTP Labtech) using 488 nm excitation and FITC filter set (500-530 nm) for emission. IC50 values were calculated by curve fitting to max inhibition of day zero growth using GeneData software analysis.

[1] = 6His tagged GLS protein (amino acids 63-669), glutamine substrate; read-out: Assay a) enz IC50

GLS1, sequence (O94925 63-669): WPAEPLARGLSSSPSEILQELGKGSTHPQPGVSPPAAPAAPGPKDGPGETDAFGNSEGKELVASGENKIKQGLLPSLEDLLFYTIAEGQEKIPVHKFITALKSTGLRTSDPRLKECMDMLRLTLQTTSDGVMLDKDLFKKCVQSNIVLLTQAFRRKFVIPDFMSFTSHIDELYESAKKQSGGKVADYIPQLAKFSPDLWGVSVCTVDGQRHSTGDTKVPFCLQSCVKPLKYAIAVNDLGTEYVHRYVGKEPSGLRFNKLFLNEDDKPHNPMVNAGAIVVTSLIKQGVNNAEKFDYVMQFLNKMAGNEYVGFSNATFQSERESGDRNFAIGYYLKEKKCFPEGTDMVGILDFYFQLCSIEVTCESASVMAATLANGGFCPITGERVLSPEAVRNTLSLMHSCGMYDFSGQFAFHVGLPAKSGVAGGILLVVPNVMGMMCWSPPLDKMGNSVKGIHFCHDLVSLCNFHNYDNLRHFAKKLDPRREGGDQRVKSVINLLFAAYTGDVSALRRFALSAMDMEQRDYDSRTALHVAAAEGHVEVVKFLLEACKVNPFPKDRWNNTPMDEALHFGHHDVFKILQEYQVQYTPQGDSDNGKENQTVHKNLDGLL

| IC50 (GLS1; [1]) | IC50 (cellular GLS activity) | IC50 (NCI-H1703 cells) | IC50 (GLS1; read-out: Assay a) enz IC50) | Structure (SMILES) |
| --- | --- | --- | --- | --- |
| 18.9 nM | 2.45 nM | 36.9 nM |  | COc1ccc(C(OC)C(=O)Nc2nnc(N[C@@H]3CCN(c4ccc(F)nn4)C3)s2)cc1 (single isomer, unassigned) [Example 22] |
| 1090 nM | 63.2 nM | 686 nM |  | CCOC(C(=O)Nc1nnc(N[C@@H]2CCN(c3ccc(F)nn3)C2)s1)c1ccc(F)cc1 (single isomer, unassigned) [Example 25] |
| 24.3 nM | 0.251 nM | 1.74 nM |  | COC(C(=O)Nc1nnc(N[C@@H]2CCN(c3ccc(F)nn3)C2)s1)c1cccc(OC(F)(F)F)c1 (single isomer, unassigned) [Example 17] |
| 148 nM | 19.2 nM | 18.9 nM |  | COc1ccc([C@H](OC)C(=O)Nc2nnc(N[C@@H]3CCN(c4cc(C)cnn4)C3)s2)cc1 (single isomer, unassigned) [Example 33(a)] |
| 223 nM | 53.7 nM | 930 nM |  | COc1ccc(C(OC)C(=O)Nc2nnc(N[C@@H]3CCN(c4ccc(F)nn4)C3)s2)cc1 (single isomer, unassigned) [Example 21] |
| 265 nM | 197 nM | 106 nM |  | COc1cc(C(OC)C(=O)Nc2nnc(N[C@@H]3CCN(c4ccc(F)nn4)C3)s2)ccc1F (single isomer, unassigned) [Example 23] |
| 65.3 nM | 4.91 nM | 16.8 nM |  | COC(C(=O)Nc1nnc(N[C@@H]2CCN(c3ccc(F)nn3)C2)s1)c1cccc(OC(F)(F)F)c1 (single isomer, unassigned) [Example 18] |

Continued, compound first:

| Structure (SMILES) | IC50 (GLS1; [1]) | IC50 (cellular GLS activity) | IC50 (NCI-H1703 cells) | IC50 (GLS1; read-out: Assay a) enz IC50) |
| --- | --- | --- | --- | --- |
| CO[C@H](C(=O)Nc1nnc(N[C@@H]2CCN(c3ccc(C)nn3)C2)s1)c1cccc(OC(F)F)c1 (single isomer, unassigned) [8(b)] | 643 nM | 22.1 nM | 117 nM |  |
| CCO[C@H](C(=O)Nc1nnc(N[C@@H]2CCN(c3ccc(C)nn3)C2)s1)c1cccc(OC)c1 (single isomer, unassigned) [Example 4(a)] | 79.2 nM | 0.457 nM | 6.64 nM |  |
| COc1ccc([C@H](OC)C(=O)Nc2nnc(N[C@@H]3CCN(c4cc(Cl)cnn4)C3)s2)cc1 (single isomer, unassigned) [11(b)] |  | 10.5 nM | 129 nM | 84.8 nM |
| COc1cccc([C@H](OC)C(=O)Nc2nnc(N[C@@H]3CCN(c4ccc(C)nn4)C3)s2)c1 (single isomer, unassigned) [Example 1(a)] | 55.4 nM | 0.566 nM | 4.59 nM |  |
| COc1ccc([C@H](OC)C(=O)Nc2nnc(N[C@@H]3CCN(c4cc(C)cnn4)C3)s2)cc1 (single isomer, unassigned) [33(b)] | 79.9 nM | 2.35 nM | 37.9 nM |  |
| CO[C@H](C(=O)Nc1nnc(N[C@@H]2CCN(c3ccc(C)nn3)C2)s1)c1cccc(OC(F)(F)F)c1 (single isomer, unassigned) [7(b)] |  | 12.7 nM | 25.6 nM | 334 nM |
